Entries after “also recorded” stand apart in the source; their conditions may differ. Read-outs that look alike come from different tables or passages of the source.
Tests used:
[1] = test system: Male Swiss Webster mice given a lethal dose of acetaminophen (APAP); test: Survival of mice given a lethal dose of APAP, with or without BPPA treatment; type: in vivo; details: for mortality: APAP alone
Experimental: Male Swiss Webster mice weighing between 25-30 g were obtained from Harlan Laboratories (Indianapolis, Ind.). Mice had unlimited access to rodent chow (Harlan Teklad Rat Chow No. 7001, Madison, Wis.) and water. The mice were housed over sawdust bedding free of any known chemical contaminants (Sani-chips; Harlan Teklad, Madison, Wis.) in air conditioned quarters (21±1° C.) with a 12 h photoperiod. All animal husbandry and handling conditions were as per the NIH Guide for Care and Use of Laboratory Animals. Research protocols were approved by the ULM Institutional Animal Care and Use Committee (IACUC).
(§1) Mice were given by intraperitoneal injection (i.p.) a lethal dose of APAP (600 mg/kg in 0.45 N NaCl, pH 8.2) or the vehicle alone. Treated mice were given a single injection of 20 mg/kg, i.p., BPPA, a sPLA2 inhibitor, after a set time interval (2, 4, and 8 hours after the dose of APAP). BPPA was purchased from a commercial source (Catalog No. 53319, Sigma Aldrich, St. Louis, Mo.). All the mice were observed six times on the first day and twice daily thereafter for 14 days for any mortality. […] Plasma was obtained by centrifugation of blood samples (1000 g for 20 min) for assessment of biochemical parameters of liver injury. The remaining plasma was quick-frozen in liquid nitrogen and stored at −80° C. until further analysis.

[2] = test system: plasma alanine aminotransferase (ALT); test: Plasma alanine aminotransferase (ALT) as biomarker of liver injury; type: in vivo, mice
Experimental: as §1
Plasma was separated by centrifugation of the heparinized blood. Plasma alanine aminotransferase (ALT) was measured as a biomarker of liver injury using a kit from Thermo DMA (Waltham, Mass.). The results were ascertained by light microscopic examination of liver sections stained with hematoxylin and eosin (H&E).

[3] = test system: secretory phospholipase A2 (sPLA2); test: sPLA2 activity in plasma; type: in vivo, mice
Experimental: as §1
sPLA2 activity in the plasma was measured using sPLA2 activity kit (Cayman Chemicals, Ann Arbor, Mich.) as per the manufacturer's instructions. sPLA2 activity in plasma was expressed as sPLA2 units/ml. One unit of sPLA2 hydrolyzes one μmole of substrate (diheptanoyl Thio-phosphatidylcholine) per min at 25° C. and is expressed as μmoles substrate hydrolyzed/min/ml.

[4] = mice; cited from earlier work
[5] = humans; cited from earlier work
[6] = test system: rats receiving chlordecone (CD)+CCl4; test: Survival after chlordecone + CCl4 combination with BPPA treatment; type: in vivo; details: BPPA 20 mg/kg 1 hour after CCl4 injection; rats on chlordecone; data not shown
Experimental: A combination of two chemicals, which are known to be nontoxic individually at very low levels, is known to be highly toxic when combined in mammals. One of these is a chlorinated pesticide known as KEPONE™, which is commonly known as chlordecone. The other is the organic solvent, carbon tetrachloride (CCl4). Either chemical will be toxic if given at a sufficient dose. For example, chlordecone, administered to older rats at 120 mg/kg causes central nervous system (CNS) toxicity such as tremors, convulsions and death. CCl4 injected or given orally at 4 ml/kg causes severe liver necrosis, liver failure and death. […] Likewise, exposing rats to a single dose of 100 μl/kg CCL4, i.p. led to the classic centrilobular injury by 3 hours, which escalated to about 4 fold injury in the liver by 12 hours. However, by 24 hours, the liver injury was repaired and no liver injury was observed. In contrast, if the same dose of CCl4 was given to rats maintained on dietary 10 ppm chlordecone for 15 days, on day 16, all rats died within 3 days after injecting CCl4, which is about a 67-fold amplification of the toxicity for CCl4 (Mehendale, 1994).
Using this combination of chlordecone and CCL4, BPPA (20 mg/kg) was injected in the rats 1 hour after the injection of CCl4, and 90% of the rats receiving the chlordecone (CD)+CCl4 survived (data not shown).

[7] = test system: mice lethally poisoned with thioacetamide; test: Rescue of mice lethally poisoned with thioacetamide by BPPA; type: in vivo; details: data not shown
Text: In addition, I have shown that sPLA2 mediates the liver injury initiated by thioacetamide, another hepatotoxicant, by showing mice lethally poisoned with thioacetamide were rescued by inhibiting sPLA2 with BPPA (data not shown).

[8] = test system: rats maintained on dietary 10 ppm chlordecone; details: CCl4 100 μl/kg i.p. on day 16 to rats on dietary 10 ppm chlordecone for 15 days; cited from earlier work
[9] = APAP alone 600 mg/kg i.p., measured on Day 2, vs control and vehicle
[10] = BPPA 20 mg/kg 2 hours after APAP 600 mg/kg, surviving mice, over 14 days
[11] = BPPA 20 mg/kg 4 hours after APAP 600 mg/kg

## CC(=O)Nc1ccc(O)cc1 [APAP, Acetaminophen]
[1]; single dose 600 mg/kg i.p., no further treatment
  mortality: 80%
[1]; at 12 hours after injection
  mortality: 50%
[1]; at 24 hours after injection
  mortality: 80%
[2]; [9]
  plasma ALT enzymatic activity: increased
[3]; [9]
  plasma sPLA2 enzymatic activity: increased
[4]
  half-life: 1 h
[5]
  half-life: 2.5 h

## O=C(O)CC[C@@H](Cc1ccc(OCc2ccccc2)cc1)NC(=O)CCCCCCc1ccccc1 [BPPA, 5-(4-Benzyloxyphenyl)-4S-(7-phenylheptanoylamino) pentanoic acid]
[1]; BPPA 20 mg/kg i.p. 4 hours after APAP 600 mg/kg i.p., observed 14 days
  survival: 70%
[1]; BPPA 20 mg/kg i.p. 8 hours after APAP 600 mg/kg i.p., observed 14 days
  survival: 60%
[1]; at 14 days, BPPA 20 mg/kg 2 hours after acetaminophen
  cumulative mortality: 10%
[1]; inhibitor administered 2 to 8 hours after APAP 600 mg/kg
  survival: 60%-80
[2]; [10]
  plasma ALT activity: down to the normal values; also recorded: decreased
[2]; [11]
  plasma ALT level: decreased to about normal levels
[3]; [10]
  plasma sPLA2 activity: down to the normal values; also recorded: decreased
[3]; [11]
  plasma sPLA2 level: decreased to about normal levels
[6]
  survival: 90%
[7]
  rescue from lethal thioacetamide poisoning: rescued
[7]; mice lethally dosed with thioacetamide, treated with BPPA
  mortality: less mortality

## ClC(Cl)(Cl)Cl [CCl4, carbon tetrachloride]
[8]
  amplification of the toxicity: ~67 fold
